Assay [1] deals with T1, RNA-binding protein pos-1 (Caenorhabditis elegans, UniProt G5EF15).
T1 sequence (G5EF15 whole entry): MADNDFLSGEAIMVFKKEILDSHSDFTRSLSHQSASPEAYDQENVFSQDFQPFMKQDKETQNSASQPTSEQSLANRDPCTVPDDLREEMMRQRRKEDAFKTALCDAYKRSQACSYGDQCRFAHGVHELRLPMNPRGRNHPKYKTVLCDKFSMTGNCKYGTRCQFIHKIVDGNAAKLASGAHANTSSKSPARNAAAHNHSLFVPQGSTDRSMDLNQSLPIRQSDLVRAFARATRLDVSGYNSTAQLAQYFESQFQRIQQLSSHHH
Put plainly: inhibitors of POS-1/mex-3 RNA binding, dose response, biochemical, fluorescence polarization (AID 1964).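 Further: purified POS-1 fused to maltose binding protein made in E. coli; potency of compounds blocking POS-1 binding to fluorescent RNA.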 A general note: Polarisation of emitted light reports the rotation of a fluorescent probe.

The target of assay [2] is T2, Zinc finger protein mex-5 (Caenorhabditis elegans, UniProt Q9XUB2).
T2 sequence (Q9XUB2 whole entry): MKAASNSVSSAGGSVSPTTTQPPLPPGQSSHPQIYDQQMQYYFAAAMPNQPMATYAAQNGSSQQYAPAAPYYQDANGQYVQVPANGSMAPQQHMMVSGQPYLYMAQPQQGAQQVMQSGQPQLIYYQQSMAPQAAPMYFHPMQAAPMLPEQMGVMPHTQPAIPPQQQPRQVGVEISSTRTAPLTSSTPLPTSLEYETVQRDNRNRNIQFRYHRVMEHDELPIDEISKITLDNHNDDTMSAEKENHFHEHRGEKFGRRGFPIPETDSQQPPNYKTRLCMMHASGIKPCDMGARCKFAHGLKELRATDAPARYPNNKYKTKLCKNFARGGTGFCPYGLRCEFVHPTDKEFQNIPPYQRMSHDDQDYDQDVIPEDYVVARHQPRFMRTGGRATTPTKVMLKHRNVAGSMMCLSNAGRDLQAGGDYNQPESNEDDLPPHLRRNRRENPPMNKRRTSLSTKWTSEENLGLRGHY
Put plainly: MEX-5/TCR-2 RNA interaction inhibitors, dose response, biochemical, C. elegans, fluorescence polarization (AID 1960).

Assay [3] deals with T3, Replicative DNA helicase DnaB (Mycobacterium tuberculosis, UniProt P9WMR3).
T3 sequence (P9WMR3 whole entry): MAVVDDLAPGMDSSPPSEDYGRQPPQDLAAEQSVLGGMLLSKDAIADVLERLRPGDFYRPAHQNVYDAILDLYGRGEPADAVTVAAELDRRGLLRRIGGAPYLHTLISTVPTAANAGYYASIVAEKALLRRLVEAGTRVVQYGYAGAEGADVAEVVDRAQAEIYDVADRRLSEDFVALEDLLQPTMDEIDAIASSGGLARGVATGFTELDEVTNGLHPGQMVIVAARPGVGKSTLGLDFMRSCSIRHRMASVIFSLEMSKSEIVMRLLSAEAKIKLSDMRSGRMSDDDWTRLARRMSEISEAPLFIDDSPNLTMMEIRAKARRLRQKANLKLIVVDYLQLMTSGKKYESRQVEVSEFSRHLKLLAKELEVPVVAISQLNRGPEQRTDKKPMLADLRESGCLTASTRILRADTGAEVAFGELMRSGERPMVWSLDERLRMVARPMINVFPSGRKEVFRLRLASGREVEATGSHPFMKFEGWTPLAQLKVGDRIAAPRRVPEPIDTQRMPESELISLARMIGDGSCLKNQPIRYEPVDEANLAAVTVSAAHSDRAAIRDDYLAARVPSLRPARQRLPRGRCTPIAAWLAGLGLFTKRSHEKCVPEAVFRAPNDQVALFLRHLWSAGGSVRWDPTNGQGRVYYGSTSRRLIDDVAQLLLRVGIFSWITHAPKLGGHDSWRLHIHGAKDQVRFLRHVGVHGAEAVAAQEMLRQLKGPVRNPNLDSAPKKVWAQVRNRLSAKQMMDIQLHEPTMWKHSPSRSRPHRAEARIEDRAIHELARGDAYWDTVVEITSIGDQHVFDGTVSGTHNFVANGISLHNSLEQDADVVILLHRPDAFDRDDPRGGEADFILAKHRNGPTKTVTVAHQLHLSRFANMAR
As to the kind of experiment: DnaB intein splicing inhibitors, dose response, biochemical, cell-free fluorescence (AID 449749). It is filed as functional.

A further assay deals with T4, Protein RecA (Mycobacterium tuberculosis, UniProt P9WHJ3).
T4 sequence (P9WHJ3 whole entry): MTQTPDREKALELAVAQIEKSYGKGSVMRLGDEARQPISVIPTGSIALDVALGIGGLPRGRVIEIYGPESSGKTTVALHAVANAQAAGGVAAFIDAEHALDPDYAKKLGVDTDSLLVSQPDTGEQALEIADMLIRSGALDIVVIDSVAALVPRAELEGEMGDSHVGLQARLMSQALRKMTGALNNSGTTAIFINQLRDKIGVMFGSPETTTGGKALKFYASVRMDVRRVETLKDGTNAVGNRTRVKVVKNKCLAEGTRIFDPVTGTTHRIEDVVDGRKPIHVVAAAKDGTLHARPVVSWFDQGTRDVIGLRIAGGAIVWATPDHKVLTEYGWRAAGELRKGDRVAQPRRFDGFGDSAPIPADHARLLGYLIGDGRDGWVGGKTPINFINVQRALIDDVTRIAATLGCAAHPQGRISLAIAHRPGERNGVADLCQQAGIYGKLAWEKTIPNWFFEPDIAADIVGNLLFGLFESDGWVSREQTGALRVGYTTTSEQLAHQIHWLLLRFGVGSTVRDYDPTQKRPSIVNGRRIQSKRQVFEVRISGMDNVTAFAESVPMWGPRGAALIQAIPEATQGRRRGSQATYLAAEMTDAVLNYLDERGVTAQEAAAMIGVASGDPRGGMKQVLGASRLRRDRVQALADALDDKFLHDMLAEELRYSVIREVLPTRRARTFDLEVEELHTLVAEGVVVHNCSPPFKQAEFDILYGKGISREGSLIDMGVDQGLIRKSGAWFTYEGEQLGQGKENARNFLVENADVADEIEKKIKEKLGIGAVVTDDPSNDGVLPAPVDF
Put plainly: Fluorescence Cell-Free Homogeneous Dose Retest to Identify Inhibitors of RecA-Intein Splicing Activity. [Related pubchem assays (depositor defined):AID2097, AID2223, AID489010, AID492950]. The assay is classed as functional.

The nature of assay [4]: P. falciparum Dd2 growth inhibitors, dose response, SYBR Green, cherry-picked samples (AID 1159567). The assay is classed as functional, cell-based.
A further assay deals with T5, Aminopeptidase N (Plasmodium falciparum FcB1/Columbia, UniProt O96935).
T5 sequence (O96935 whole entry): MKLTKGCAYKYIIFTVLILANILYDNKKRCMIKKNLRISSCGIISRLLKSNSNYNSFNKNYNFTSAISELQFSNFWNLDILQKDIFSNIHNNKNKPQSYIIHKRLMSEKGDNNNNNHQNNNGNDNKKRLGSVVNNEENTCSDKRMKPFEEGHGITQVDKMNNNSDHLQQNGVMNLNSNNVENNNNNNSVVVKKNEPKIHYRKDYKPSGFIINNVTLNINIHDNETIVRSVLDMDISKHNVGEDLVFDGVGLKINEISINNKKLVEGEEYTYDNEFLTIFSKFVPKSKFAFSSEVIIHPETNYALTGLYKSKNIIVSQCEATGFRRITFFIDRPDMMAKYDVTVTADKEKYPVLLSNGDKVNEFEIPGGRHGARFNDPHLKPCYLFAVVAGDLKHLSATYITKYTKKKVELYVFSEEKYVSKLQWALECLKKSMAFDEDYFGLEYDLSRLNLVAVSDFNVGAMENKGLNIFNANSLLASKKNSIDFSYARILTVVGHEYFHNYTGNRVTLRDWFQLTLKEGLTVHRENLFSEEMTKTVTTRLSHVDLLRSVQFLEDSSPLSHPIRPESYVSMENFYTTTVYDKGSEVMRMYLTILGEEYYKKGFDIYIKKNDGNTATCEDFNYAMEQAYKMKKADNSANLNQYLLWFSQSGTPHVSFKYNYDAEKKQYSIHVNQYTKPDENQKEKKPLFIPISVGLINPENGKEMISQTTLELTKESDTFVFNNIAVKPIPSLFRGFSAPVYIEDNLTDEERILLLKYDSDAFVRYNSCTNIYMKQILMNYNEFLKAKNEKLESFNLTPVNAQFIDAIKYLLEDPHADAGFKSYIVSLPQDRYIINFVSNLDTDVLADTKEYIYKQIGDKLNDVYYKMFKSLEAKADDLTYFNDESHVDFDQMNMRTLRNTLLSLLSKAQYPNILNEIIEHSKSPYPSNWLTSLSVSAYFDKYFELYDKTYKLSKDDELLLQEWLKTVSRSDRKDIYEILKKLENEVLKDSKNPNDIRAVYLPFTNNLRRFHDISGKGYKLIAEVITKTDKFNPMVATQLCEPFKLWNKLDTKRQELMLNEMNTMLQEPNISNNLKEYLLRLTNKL
As to the kind of experiment: P. falciparum M1AAP inhibitors, biochemical, fluorogenic H-Leu-NHMec substrate, 1536-well (AID 1445). Set-up: species or system Plasmodium falciparum 3D7, 3D7.

Assay [5] concerns the target Luciferin 4-monooxygenase (Photinus pyralis, UniProt P08659). Put plainly: firefly luciferase enzyme inhibitors, dose response, biochemical, luminescence (AID 1891).
The nature of assay [6]: Luminescence Cell-Based Dose Confirmation HTS to Identify Inhibitors of Platelet Dense Granule Release. [Related pubchem assays: 1663 (Primary HTS), 1678 (Summary of Project)]. It is filed as functional.
A short description of assay [7]: Shn3 3'UTR reporter inhibitors, dose response, cell-based, Clone20 osteoblasts, firefly luciferase, cherry-picked (AID 624132).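 Further: firefly luciferase luminescence from reporter carrying the Shn3 3'UTR in osteoblasts.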 It is filed as functional.
Assay [8] in a line: cytotoxicity toward NIH3T3 fibroblasts, dose response, counter-screen, cell-based, ATP luminescence, mouse fibroblasts (AID 2010).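 Further: cells exposed to compound for about 90 hours before reading.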 It is filed as functional. On the technique in general: A counterscreen serves to expose hits that act by an unwanted route or on another target.
Assay [9] can be described thus: inhibitors of intracellular T. cruzi replication, confirmation, NIH3T3 host cells, beta-gal luminescence (AID 2044).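 Further: intracellular parasites grown in NIH/3T3 mouse fibroblasts as host cells; luminescent beta-galactosidase reporter signal from transgenic T. cruzi replicating inside host cells; inhibitors lower the luminescence signal.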 The assay is classed as functional, cell-based.

Structures are written as SMILES. The source made the active and inactive calls. For most assays here, no stated cut-off is given here; in the data, actives have a measured EC50 and inactives only a lower limit.

Sequence of Luciferin 4-monooxygenase (P08659 whole entry): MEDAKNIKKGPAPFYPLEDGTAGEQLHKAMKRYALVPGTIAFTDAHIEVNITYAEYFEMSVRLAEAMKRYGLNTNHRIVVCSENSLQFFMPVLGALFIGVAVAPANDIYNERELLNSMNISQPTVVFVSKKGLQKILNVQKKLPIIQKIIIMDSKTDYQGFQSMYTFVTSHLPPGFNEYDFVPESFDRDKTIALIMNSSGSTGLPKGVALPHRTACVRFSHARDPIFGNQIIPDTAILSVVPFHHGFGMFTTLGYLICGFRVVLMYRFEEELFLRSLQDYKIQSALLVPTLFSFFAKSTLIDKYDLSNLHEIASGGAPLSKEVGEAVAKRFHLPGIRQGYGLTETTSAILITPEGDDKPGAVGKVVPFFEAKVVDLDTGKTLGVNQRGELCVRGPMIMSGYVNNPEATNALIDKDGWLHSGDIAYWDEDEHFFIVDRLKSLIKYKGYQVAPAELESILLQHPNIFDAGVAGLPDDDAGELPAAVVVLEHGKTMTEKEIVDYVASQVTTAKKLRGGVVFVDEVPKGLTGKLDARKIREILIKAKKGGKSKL

The term EC50 denotes the concentration needed to bring the measured effect to its halfway point. Regarding `Cc1ccc(/C=N/NC(=O)c2nnn(-c3nonc3N)c2-c2cccs2)cc1`, the EC50 in [1] and in assay [2] was > 300 µM (not active) throughout. A word on the AC50: it is the midpoint of the concentration-response curve, whichever way the signal moves. `CCOC(=O)Cc1n[nH]c2c1C(c1cc(OC)ccc1OC)C(C#N)=C(N)O2` (stereo unspecified): in [3], the AC50 was 73.9 µM (active). Further, the EC50 on Protein RecA is 13.3 µM (active). In the case of `C[C@H]1CN([C@@H](C)CO)S(=O)(=O)c2ccc(C#Cc3ccccc3)cc2O[C@H]1CN(C)C(=O)C1CC1`, the AC50 in assay [4] was 3.95 µM (active). For `Cc1nn(-c2ccccc2)c2c1C(c1ccccc1)C(C#N)=C(N)O2` (stereo unspecified), the AC50 in assay [3] is 16.8 µM (active). For the same molecule, the EC50 at Protein RecA is 9.07 µM (active). As to `COc1cc(CN2[C@@H]3CNC[C@H]2[C@@H]3c2ccc(-c3ccccc3)cc2)cc(OC)c1`, in assay [4], the half-maximal activity concentration (AC50) is 6.99 µM (active).

As usually defined, the IC50 is the concentration needed to halve the response being measured. As for `CN(C)Cc1c(O)ccc2c3c(c(=O)oc12)CCCCC3`, at Aminopeptidase N, the IC50 was 44.5 µM (active). As for `COCCCNC(=O)C(C#N)c1nc2ccccc2nc1N1CCCC1` (stereo unspecified), the values for the EC50 in assay [1] and in assay [2] were 23.8 µM (active) and > 300 µM (inconclusive), respectively. With `O=c1oc2c(CN3CCOCC3)c(O)ccc2c2c1CCCC2`, the IC50 on Aminopeptidase N was 23.7 µM (active). On the same count and under the same terms, the value for `CCc1nnc(NS(=O)(=O)c2ccc(NC(=S)NC(=O)c3cccs3)cc2)s1` was 35.4 µM (active). As for `NC(=O)c1sc2nnc(-c3ccccc3)c(-c3ccccc3)c2c1N`, the EC50 in [1] and in assay [2] was > 300 µM (not active) throughout. Turning to `CSc1nnc(N2C(=O)C(O)=C(C(=O)c3ccco3)C2c2ccc(F)cc2)s1` (stereo unspecified), the EC50 is > 112 µM (not active) in assay [5], > 150 µM (not active) in assay [1], 82.8 µM (active) in assay [2] and > 112 µM (not active) in assay [6]. On to `CCOC(=O)Cn1c(S(=O)(=O)Cc2ccccc2Cl)nc(-c2ccccc2)c1-c1ccccc1`, for which the AC50 in assay [7] was 9.29 µM (active).

As for `O=C1CN(S(=O)(=O)c2ccccc2)C[C@@H]2[C@H](c3ccc(C#CCc4ccccc4)cc3)[C@@H](CO)N12`, the AC50 in [4] is 4.23 µM (active). `O=[N+]([O-])c1c(O)nc(O)nc1/C=C/c1cccnc1`: the AC50 in [3] was > 380 µM (inactive). Also, the EC50 at Protein RecA was > 380 µM (inactive). For `N=c1c(C(=O)NCC2CCCO2)cc2c(=O)n3ccccc3nc2n1Cc1ccccc1Cl` (stereo unspecified), the EC50 in assay [1] was 104 µM (active); in assay [2] it was 195 µM (active). For `O=C1NC(=O)N(c2ccccc2)C(=O)/C1=C\NN1C(=O)c2cccc3cccc(c23)C1=O`, in that order: > 300 µM (not active) and 72 µM (active).

In the case of `CCCCS/C(=C(/C#N)C(N)=O)c1cc2c([nH]1)CCCC2`, in [3], the AC50 was > 380 µM (inactive). For the same molecule, the concentration for a half-maximal effect (EC50) at Protein RecA is 15.6 µM (active). `Cc1ccc(N/C=C2/Sc3ccccc3NC2=O)cc1`: the EC50 is > 30 µM (not active) in assay [8], > 300 µM (not active) in assay [1], > 300 µM (inconclusive) in [2] and 806 nM (active) in assay [9]. As for `COc1ccc(C2C(C#N)=C(N)OC3=C2C(=O)CC(C)C3)c(OC)c1OC` (stereo unspecified), the EC50 in assay [1] and in assay [2] was > 300 µM (not active) each time. As to `COC(=O)CC1=NN(c2ccc(OC)cc2)C(=O)C1`, the AC50 in [3] is 54.9 µM (active). The 50% effective concentration (EC50) on Protein RecA is 13.1 µM (active). Consider `CO[C@@H]1CN(C)C(=O)c2cc(NC(=O)Nc3cccc(Cl)c3)ccc2OC[C@H](C)NC[C@H]1C`, for which the AC50 in assay [4] is 6.78 µM (active).

For the molecule `Cc1ccc(/C=C/C(=O)c2ccc(N3CCOCC3)cc2)s1`, the EC50 in [1] and in assay [2] was > 300 µM (not active) in each case.

For the molecule `O=C(C[C@@H]1CC[C@@H]2[C@H](COC[C@@H](O)CN2S(=O)(=O)c2ccccc2)O1)NCc1ccc(-c2ccccc2)cc1`, the AC50 in [4] is 6.32 µM (active).

(Values after ChEMBL document CHEMBL1201862, “PubChem BioAssay data set” (2004).)
